Reference: ChEMBL document CHEMBL1201862, “PubChem BioAssay data set” (2004)
Activity calls are given as the source filed them.

Legend:
[1] = target: T1, Methionyl-tRNA synthetase, putative (Trypanosoma brucei brucei, UniProt Q38C91); type: functional, Trypanosoma brucei brucei strain 927/4 GUTat10.1
[2] = target: T1, Methionyl-tRNA synthetase, putative; type: functional, Trypanosoma brucei brucei strain 927/4 GUTat10.1; remark: listed apart in the source
[3] = Counterscreen for inhibitors of Trypanosoma brucei methionyl tRNA synthetase (MetRS): Luminescence-based cell-based high throughput dose response assay to identify compounds that are cytotoxic to Jurkat human T lymphocyte cells.; type: functional
[4] = target: Arf-GAP with SH3 domain, ANK repeat and PH domain-containing protein 1 (Homo sapiens, UniProt Q9ULH1); type: functional;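 note: biochemical fluorescence polarization dose–response screen measuring inhibition of ASAP1; ASAP1 GAP domain stimulating GTP hydrolysis by truncated human ARF1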
Nonstructural protein 1 = Nonstructural protein 1 (Influenza A virus, UniProt Q194T2); type: functional, Influenza A virus (A/California/07/2009(H1N1))
[5] = viability of HCT116 lacking mutant beta-catenin – cell-based, human colon tumor, dose response (AID 1045); type: functional;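 note: HCT116 colon tumor cells with beta catenin knocked out; cells exposed to compound for 60 hours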
[6] = viability of PTEN-deleted HCT116 cells – cell-based, HCT116 PTEN knockout, dose response (AID 1047); type: functional;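 note: HCT116 colon tumor cells with PTEN knocked out; cells exposed to compound for 60 hours before readout; potency for loss of cell viability measured by luminescence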
[7] = target: T2, DNA repair protein RAD52 homolog (Homo sapiens, UniProt P43351); type: functional, biochemical
T2 sequence (P43351 whole entry): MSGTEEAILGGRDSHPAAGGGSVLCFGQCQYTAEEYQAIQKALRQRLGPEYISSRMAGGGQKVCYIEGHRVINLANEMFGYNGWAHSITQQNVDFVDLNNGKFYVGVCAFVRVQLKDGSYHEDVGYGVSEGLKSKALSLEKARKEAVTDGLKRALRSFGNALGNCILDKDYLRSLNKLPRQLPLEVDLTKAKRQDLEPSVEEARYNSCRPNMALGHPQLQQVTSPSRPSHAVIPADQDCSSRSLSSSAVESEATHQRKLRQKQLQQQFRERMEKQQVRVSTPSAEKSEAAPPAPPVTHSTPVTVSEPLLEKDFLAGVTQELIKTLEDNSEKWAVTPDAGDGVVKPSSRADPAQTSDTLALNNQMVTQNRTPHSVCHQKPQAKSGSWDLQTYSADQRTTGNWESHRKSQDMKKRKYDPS

[8] = target: T3, Tyrosine-protein phosphatase non-receptor type 22 (Homo sapiens, UniProt Q9Y2R2); experiment: lymphoid phosphatase LYP inhibitors – biochemical, selectivity assay for STEP inhibitor project, dose response (AID 624241); type: functional
T3 sequence (Q9Y2R2 whole entry): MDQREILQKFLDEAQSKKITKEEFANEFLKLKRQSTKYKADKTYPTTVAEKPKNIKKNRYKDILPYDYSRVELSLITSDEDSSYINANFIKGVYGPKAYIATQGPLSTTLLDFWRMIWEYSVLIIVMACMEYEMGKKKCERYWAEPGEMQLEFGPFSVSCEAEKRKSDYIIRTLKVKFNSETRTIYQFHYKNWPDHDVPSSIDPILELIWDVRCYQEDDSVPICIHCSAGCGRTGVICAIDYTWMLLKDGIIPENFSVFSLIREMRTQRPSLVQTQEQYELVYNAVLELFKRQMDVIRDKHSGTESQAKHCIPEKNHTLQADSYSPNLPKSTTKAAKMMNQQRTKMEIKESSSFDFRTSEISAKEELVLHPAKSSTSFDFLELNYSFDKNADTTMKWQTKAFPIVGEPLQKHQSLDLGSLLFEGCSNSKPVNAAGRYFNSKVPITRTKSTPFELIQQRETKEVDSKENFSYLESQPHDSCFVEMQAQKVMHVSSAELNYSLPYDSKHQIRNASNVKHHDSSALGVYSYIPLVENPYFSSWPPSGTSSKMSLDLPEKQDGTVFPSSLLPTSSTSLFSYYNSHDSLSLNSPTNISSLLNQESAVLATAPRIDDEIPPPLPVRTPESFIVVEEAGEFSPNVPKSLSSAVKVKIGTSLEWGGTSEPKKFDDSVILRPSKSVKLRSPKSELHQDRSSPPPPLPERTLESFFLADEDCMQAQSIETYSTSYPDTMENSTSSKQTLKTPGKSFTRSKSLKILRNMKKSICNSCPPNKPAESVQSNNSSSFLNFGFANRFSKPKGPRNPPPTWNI

[9] = target: Tyrosine-protein phosphatase non-receptor type 5 (Homo sapiens, UniProt P54829); experiment: PTPN5 enzyme inhibition – biochemical, fluorescence intensity, uHTS hits, confirmation (AID 602372); type: functional; details: read-out: IC50_Mean
[10] = target: Dual specificity protein phosphatase 3 (Homo sapiens, UniProt P51452); experiment: VHR phosphatase inhibition, dose response, selectivity assay for STEP inhibitor project, biochemical (AID 602374); type: functional; details: read-out: IC50_Mean
[11] = target: Tyrosine-protein phosphatase non-receptor type 11 (Homo sapiens, UniProt Q06124); experiment: PTPN11 enzyme inhibitors – biochemical, selectivity assay for STEP inhibitor project, dose response (AID 602367); type: functional; details: read-out: IC50_Mean
[12] = test system: Streptococcus sp. 'group A'; experiment: Streptococcus pyogenes SK(-)GAS viability under kanamycin – luminescence, BacTiterGlo, confirmation, counter-screen for streptokinase expression inhibitor project, dose response (AID 1900); type: functional, organism-based
[13] = target: Low molecular weight phosphotyrosine protein phosphatase (Homo sapiens, UniProt P24666); type: functional; details: read-out: IC50_Mean;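 note: Dose-response confirmation assay measuring inhibition of LMPTP enzyme activity by fluorescence intensity read-out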
Streptococcus = experiment: GAS UMAA2166 growth inhibition – luminescence, BacTiterGlo, counter-screen for streptokinase expression inhibitor project, dose response (AID 1915); type: functional, organism-based;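 note: potency for reduction of bacterial viability or growth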
Streptokinase A = target: T4, Streptokinase A (Streptococcus pyogenes serotype M1, UniProt P10520); experiment: viability-normalized secreted streptokinase activity reduction – plasminogen activation absorbance, OD405, dose response (AID 1914); type: functional, Streptococcus pyogenes M1 GAS;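 note: secreted streptokinase activity via plasminogen activation per viability signal from cell pellet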
T4 sequence (P10520 whole entry): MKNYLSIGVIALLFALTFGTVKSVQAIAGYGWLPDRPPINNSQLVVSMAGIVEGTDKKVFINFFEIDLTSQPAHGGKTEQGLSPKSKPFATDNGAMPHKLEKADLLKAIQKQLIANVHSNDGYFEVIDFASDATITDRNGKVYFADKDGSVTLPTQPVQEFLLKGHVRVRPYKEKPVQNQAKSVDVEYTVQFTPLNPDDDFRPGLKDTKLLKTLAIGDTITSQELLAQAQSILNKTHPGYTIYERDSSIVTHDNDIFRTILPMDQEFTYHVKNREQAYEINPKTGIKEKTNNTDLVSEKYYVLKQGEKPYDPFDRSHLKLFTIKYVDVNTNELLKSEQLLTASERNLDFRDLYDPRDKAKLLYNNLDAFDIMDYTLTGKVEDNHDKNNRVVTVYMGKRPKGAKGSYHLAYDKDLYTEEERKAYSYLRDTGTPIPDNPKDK

[14] = nonselective StAR promoter luciferase inhibitors – cell-based, luminescence, luciferase reporter, counter-screen for LRH-1 inverse agonist project, dose response (AID 651969); type: functional
Steroidogenic factor 1 = Steroidogenic factor 1 (Homo sapiens, UniProt Q13285); experiment: Counterscreen for inverse agonists of the liver receptor homolog-1 (LRH-1; NR5A2): Luminescence-based cell-based high throughput dose response assay to identify inverse agonists of the Steroidogenic Factor 1 Nuclear Receptor (SF1; NR5A1).; type: functional
[15] = target: Nuclear receptor subfamily 5 group A member 2 (Homo sapiens, UniProt O00482); type: functional, cell-based;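 note: HEK293T cells transfected with LRH-1 and a StAR promoter luciferase reporter; potency for inhibitors that lower LRH-1 driven reporter light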
[16] = target: T5, Sentrin-specific protease 8 (Homo sapiens, UniProt Q96LD8); type: functional
T5 sequence (Q96LD8 whole entry): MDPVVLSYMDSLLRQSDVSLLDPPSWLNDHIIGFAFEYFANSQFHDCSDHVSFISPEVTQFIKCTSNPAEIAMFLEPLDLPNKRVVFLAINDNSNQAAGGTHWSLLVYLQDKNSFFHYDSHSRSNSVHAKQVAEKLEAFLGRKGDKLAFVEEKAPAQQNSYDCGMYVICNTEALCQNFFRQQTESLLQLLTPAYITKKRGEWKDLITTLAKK

Caspase-3 = target: T6, Caspase-3 (Homo sapiens, UniProt P42574); experiment: Dose-response confirmation of uHTS inhibitor hits of Sentrin-Specific Protease 8 in a Caspase-3 Fluorescence assay.; type: functional
T6 sequence (P42574 whole entry): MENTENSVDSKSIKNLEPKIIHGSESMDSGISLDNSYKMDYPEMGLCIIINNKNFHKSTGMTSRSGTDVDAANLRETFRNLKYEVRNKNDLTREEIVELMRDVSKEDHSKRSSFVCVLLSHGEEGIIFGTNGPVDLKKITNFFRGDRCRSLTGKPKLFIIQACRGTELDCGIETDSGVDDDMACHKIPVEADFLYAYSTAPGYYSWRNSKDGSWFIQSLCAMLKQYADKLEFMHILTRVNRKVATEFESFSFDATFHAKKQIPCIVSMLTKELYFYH

[17] = target: T5, Sentrin-specific protease 8; type: functional; remark: listed apart in the source
[18] = target: T7, Aryl hydrocarbon receptor (Homo sapiens, UniProt P35869); details: Potency;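 note: confirmatory quantitative high-throughput screen measuring activation of the AhR signaling pathway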
T7 sequence (P35869 whole entry): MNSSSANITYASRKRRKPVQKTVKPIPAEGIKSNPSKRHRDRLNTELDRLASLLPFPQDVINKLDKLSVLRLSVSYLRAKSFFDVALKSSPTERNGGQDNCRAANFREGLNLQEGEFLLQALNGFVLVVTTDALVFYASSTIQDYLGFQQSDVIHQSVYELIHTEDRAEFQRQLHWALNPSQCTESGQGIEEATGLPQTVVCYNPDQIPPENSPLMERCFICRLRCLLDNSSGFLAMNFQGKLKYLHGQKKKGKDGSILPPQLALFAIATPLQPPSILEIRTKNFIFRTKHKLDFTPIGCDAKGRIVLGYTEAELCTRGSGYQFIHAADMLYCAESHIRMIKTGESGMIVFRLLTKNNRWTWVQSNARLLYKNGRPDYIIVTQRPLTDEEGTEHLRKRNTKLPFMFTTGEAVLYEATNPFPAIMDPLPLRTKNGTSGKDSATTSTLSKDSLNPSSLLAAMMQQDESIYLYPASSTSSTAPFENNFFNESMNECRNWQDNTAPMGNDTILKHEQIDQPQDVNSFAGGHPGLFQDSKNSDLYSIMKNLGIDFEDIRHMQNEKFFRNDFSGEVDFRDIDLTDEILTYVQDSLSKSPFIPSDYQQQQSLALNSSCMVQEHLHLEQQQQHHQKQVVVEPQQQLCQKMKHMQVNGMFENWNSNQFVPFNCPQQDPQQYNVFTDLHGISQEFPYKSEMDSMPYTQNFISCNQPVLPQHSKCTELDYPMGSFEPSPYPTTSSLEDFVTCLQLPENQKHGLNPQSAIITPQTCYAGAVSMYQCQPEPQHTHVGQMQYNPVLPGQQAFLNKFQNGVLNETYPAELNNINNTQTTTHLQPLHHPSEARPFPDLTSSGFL

[19] = loss of viability in HepG2 cells – cell-based, CellTiter-Glo, cherry-picked, cytotoxicity control for Shn3 inhibitor project, dose response (AID 624134); type: functional
[20] = luciferase reporter signal suppression in cells – H4 neuroglioma cells, luminescence, dose response (AID 1990); type: functional, cell-based
[21] = NIH3T3 cell viability loss – ATP luminescence, mouse fibroblasts, counter-screen, dose response (AID 2010); type: functional, cell-based;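 note: cells exposed to compound for about 90 hours before reading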
[22] = reduction of Shn3 3'UTR-driven luciferase in osteoblasts – cell-based, Clone20 osteoblasts, firefly luciferase, cherry-picked, dose response (AID 624132); type: functional;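 note: firefly luciferase luminescence from reporter carrying the Shn3 3'UTR in osteoblasts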
INS1 = experiment: INS-1E survival protection against cytokine death – cell-based, luminescence, retest, dose response (AID 449756); type: functional; details: Rattus norvegicus;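 note: cell death triggered by IL-1 beta plus TNF-alpha plus IFN-gamma mixture; protective hits raise ATP signal compared with cytokine alone wells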
[23] = NIH3T3 cell viability loss, ATP content – CellTiter-Glo luminescence, cherry-pick, set 2, cytotoxicity control for HSP40 inhibitor project, dose response (AID 624265); type: functional
[24] = Luminescence Cell-Based Dose Response HTS to Identify Inhibitors of 5'UTR Stem-Loop Driven Prion Protein mRNA Translation in H4 Neuroglioblastoma Cells. [Related pubchem assays: 1827 (Project Summary), 1813 (Primary HTS)]; type: functional
[25] = non-specific 3'UTR reporter inhibition in Clone20-Shn3RL – cell-based, Renilla luciferase, cherry-picked, counter-screen for Shn3 inhibitor project, dose response (AID 624133); type: functional
[26] = Trypanosoma cruzi growth suppression in host cells – NIH3T3 host cells, beta-gal luminescence, confirmation (AID 2044); type: functional, cell-based;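 note: intracellular parasites grown in NIH/3T3 mouse fibroblasts as host cells; luminescent beta-galactosidase reporter signal from transgenic T. cruzi replicating inside host cells; inhibitors lower the luminescence signal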
cells [27] = type: functional, cell-based
[28] = alpha-synuclein stem-loop luciferase translation blockers – H4 neuroglioma cells, luminescence, confirmation (AID 1988); type: functional, cell-based
[29] = target: Photoreceptor-specific nuclear receptor (Homo sapiens, UniProt Q9Y5X4); type: functional, cell-based;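 note: CHO-S cells with Gal4-NCOR and VP16-NR2E3 two-hybrid luciferase reporter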
cells [30] = type: functional, cell-based; remark: listed apart in the source

T1 sequence (Q38C91 whole entry): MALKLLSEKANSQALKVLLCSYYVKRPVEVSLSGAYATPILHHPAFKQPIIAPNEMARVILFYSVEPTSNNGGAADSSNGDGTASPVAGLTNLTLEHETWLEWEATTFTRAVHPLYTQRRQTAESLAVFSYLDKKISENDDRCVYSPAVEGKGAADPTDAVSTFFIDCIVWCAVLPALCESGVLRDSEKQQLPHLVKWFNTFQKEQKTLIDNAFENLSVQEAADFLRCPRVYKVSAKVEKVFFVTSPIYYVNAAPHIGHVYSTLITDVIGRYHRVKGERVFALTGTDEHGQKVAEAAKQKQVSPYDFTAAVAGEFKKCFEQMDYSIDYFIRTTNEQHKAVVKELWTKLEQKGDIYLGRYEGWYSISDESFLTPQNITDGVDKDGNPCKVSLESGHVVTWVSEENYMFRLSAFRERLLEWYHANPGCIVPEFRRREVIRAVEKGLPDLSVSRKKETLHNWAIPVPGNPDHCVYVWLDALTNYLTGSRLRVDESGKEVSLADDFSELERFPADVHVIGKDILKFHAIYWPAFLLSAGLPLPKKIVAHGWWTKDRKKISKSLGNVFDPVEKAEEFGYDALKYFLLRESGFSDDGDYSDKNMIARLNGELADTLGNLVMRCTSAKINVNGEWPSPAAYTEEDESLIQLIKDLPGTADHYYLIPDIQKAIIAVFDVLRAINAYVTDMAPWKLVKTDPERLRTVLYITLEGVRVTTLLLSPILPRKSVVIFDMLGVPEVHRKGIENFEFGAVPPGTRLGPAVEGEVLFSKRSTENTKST
Arf-GAP with SH3 domain, ANK repeat and PH domain-containing protein 1, sequence (Q9ULH1 whole entry, the tested form may be a part): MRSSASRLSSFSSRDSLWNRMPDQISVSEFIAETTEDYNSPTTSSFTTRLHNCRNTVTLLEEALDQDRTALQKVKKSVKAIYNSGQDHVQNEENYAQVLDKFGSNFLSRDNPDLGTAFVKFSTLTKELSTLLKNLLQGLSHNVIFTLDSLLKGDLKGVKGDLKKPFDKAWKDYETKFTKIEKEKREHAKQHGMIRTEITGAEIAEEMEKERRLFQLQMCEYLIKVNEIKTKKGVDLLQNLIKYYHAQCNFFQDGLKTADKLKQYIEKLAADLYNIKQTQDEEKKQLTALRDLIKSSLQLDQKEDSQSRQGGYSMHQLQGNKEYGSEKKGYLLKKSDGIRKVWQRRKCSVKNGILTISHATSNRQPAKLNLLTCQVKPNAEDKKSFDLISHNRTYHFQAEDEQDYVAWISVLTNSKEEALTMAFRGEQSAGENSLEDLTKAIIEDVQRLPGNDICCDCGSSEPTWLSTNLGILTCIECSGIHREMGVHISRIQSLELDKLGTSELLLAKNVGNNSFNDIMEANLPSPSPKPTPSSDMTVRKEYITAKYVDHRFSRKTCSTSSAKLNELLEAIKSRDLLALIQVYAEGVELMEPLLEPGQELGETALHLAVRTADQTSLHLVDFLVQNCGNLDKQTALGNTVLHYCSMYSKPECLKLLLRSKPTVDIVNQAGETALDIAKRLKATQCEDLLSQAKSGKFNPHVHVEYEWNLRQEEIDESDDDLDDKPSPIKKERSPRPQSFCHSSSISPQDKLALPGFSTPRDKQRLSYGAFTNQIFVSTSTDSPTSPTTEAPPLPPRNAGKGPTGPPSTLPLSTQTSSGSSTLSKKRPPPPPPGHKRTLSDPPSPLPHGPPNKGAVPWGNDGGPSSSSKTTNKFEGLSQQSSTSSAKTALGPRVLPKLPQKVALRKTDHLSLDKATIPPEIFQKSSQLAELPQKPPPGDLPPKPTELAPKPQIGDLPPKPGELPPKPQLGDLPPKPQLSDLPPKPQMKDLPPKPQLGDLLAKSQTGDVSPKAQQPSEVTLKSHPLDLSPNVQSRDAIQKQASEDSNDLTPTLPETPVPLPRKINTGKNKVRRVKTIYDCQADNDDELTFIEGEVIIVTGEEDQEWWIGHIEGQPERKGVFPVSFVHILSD
Photoreceptor-specific nuclear receptor, sequence (Q9Y5X4 whole entry, the tested form may be a part): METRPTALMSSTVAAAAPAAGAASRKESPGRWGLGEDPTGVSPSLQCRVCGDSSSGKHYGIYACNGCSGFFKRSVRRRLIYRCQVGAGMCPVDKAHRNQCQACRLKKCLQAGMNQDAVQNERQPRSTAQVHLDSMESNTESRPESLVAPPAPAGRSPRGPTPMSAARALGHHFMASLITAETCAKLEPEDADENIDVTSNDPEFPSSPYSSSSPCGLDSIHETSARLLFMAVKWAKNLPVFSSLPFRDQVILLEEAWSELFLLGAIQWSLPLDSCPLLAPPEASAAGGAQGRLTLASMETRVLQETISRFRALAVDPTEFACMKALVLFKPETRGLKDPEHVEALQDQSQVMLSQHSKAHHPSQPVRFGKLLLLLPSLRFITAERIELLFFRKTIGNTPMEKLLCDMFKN
Nonstructural protein 1, sequence (Q194T2 whole entry): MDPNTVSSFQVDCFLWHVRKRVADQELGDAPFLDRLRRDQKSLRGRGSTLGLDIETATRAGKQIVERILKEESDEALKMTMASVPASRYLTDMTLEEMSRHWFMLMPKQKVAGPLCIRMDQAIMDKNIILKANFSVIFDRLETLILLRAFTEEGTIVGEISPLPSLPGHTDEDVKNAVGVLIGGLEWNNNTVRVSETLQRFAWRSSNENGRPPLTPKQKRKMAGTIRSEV
Tyrosine-protein phosphatase non-receptor type 11, sequence (Q06124 whole entry): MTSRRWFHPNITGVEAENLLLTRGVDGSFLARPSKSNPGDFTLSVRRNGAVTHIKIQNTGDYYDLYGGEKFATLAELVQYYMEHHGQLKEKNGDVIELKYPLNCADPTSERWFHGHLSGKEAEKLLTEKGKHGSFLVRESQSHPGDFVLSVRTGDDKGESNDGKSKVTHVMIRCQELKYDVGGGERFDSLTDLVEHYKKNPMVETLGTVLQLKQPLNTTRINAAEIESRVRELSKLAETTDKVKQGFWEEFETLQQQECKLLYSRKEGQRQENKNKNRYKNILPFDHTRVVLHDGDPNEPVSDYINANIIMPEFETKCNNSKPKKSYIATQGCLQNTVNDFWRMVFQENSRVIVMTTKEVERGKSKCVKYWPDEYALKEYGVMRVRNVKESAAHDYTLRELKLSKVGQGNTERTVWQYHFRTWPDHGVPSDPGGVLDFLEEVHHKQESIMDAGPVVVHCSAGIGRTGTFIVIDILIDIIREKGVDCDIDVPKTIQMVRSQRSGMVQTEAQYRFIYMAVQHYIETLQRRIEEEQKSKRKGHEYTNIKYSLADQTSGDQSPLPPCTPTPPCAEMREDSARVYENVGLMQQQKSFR
Low molecular weight phosphotyrosine protein phosphatase, sequence (P24666 whole entry): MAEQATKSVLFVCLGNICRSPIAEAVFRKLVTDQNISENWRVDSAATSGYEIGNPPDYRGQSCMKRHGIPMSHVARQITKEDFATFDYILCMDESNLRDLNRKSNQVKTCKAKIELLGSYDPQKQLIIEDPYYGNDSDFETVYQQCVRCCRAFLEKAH
Steroidogenic factor 1, sequence (Q13285 whole entry): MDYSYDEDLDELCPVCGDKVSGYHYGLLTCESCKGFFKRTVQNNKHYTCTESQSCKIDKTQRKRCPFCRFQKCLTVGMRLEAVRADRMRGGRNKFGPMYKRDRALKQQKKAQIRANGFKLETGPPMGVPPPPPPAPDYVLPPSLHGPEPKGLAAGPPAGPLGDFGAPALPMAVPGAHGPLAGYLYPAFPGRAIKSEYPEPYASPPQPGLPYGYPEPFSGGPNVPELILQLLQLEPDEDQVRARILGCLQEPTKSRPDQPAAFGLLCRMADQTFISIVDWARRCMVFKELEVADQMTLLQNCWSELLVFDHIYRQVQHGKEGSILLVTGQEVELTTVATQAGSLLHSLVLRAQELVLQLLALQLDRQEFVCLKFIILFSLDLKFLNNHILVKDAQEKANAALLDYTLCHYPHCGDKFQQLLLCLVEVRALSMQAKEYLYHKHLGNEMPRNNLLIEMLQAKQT
Nuclear receptor subfamily 5 group A member 2, sequence (O00482 whole entry): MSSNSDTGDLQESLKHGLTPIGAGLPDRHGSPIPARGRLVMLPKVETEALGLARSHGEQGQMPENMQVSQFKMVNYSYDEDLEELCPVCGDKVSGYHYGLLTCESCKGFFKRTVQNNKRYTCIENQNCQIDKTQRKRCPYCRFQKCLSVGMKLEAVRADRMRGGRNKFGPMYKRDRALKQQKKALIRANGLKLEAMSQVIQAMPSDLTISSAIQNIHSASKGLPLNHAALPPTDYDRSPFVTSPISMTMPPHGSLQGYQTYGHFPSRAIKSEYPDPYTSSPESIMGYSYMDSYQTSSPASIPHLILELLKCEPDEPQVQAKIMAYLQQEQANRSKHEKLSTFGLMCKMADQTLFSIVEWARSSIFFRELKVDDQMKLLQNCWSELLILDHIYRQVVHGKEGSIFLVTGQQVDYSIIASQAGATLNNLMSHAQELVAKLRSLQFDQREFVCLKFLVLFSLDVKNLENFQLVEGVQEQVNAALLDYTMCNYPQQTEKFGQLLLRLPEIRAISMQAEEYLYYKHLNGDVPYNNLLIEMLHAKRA
Dual specificity protein phosphatase 3, sequence (P51452 whole entry): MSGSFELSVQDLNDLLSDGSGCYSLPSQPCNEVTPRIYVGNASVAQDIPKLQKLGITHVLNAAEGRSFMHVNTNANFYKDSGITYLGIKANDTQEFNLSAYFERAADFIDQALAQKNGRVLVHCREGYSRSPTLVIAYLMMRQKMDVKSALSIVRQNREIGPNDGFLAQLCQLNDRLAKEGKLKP

O=C(CCCOc1ccc(Cl)cc1Cl)N/N=C/c1ccco1
IC50 [1]: 12 µM (inactive)
IC50 [2]: 12.7 µM (inactive)
IC50 [3]: 83.3 µM (inactive)

CCC(/C=C1\Sc2ccc(OC)cc2N1CCO)=C\c1sc2ccc(OC)cc2[n+]1CCO
IC50 [4]: 165 µM (inactive)
IC50 (Nonstructural protein 1): 5.11 µM (active)
EC50 [5]: 5.82 µM (active)
EC50 [6]: 5.7 µM (active)
AC50 [7]: 1.77 µM (active)

N#CNc1nc(O)cc(=O)[nH]1
IC50 [8]: 11.5 µM (active)
IC50 [9]: 7.69 µM (active)
IC50 [10]: 1.24 µM (active)
IC50 [11]: 2.2 µM (active)

CCn1cc(C(=O)O)c(=O)c2cc(F)c(N3CCN(C(=S)NC(=O)c4cc(OC)cc(OC)c4)CC3)cc21
EC50 [12]: 2.89 µM (active)
IC50 [13]: 1.47 µM (active)
EC50 (Streptococcus): 30.2 µM (active)
EC50 (Streptokinase A): > 150 µM (not active)

COc1cc([N+](=O)[O-])ccc1NC(=O)Cn1ccsc1=N
IC50 [14]: 35.9 µM (inactive)
IC50 (Steroidogenic factor 1): 1.95 µM (active)
IC50 [15]: 35.9 µM (inactive)

O=C(Cn1nc(Cc2ccncc2)c2ccccc2c1=O)N1CCc2ccccc2C1
IC50 [16]: 3.48 µM (active)
IC50 (Caspase-3): 13.3 µM (active)
IC50 [17]: 6.46 µM (active)

CC1(C)C(C=C(Cl)Cl)C1C(=O)OCc1cccc(Oc2ccccc2)c1 (stereo not drawn) [PERMETHRIN]
AC50 [18]: 44.7 µM (inconclusive)

COc1cnc(-c2ccccn2)nc1N(C)c1ccccc1
AC50 [19]: 4.02 µM (active)
EC50 [20]: 8.68 µM (active)
EC50 [21]: 5.78 µM (active)
AC50 [22]: 1.83 µM (active)
AC50 (INS1): 4.34 µM (active)
AbsAC35_uM [23]: 62.35 µM
EC50 [24]: 7.24 µM (active)
AC50 [25]: 0.92 µM (active)
EC50 [12]: 4.74 µM (active)
EC50 (Streptococcus): 11 µM (active)
EC50 [26]: 1.89 µM (active)
EC50 (cells [27]): 8.25 µM (active)
EC50 [28]: > 120 µM (not active)
IC50 [29]: 4.58 µM (active)
EC50 (cells [30]): > 350 µM (not active)
